The target of the test is human PD-L1 (Homo sapiens (Human), UniProt Q9NZQ7). The test is described as follows: Enzyme-Linked Immunosorbent Assay (ELISA), PD-1/PD-L1 binding. The essentials:
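Competitive ELISA: human PD-1 […] (0.31 μg/mL) and serially diluted compounds (1:5) incubated 1 h at 37° C on wells coated with […] human PD-L1. Signal via streptavidin-HRP/TMB, stopped with 2 N H2SO4, measured as A450.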
(In general: ELISA stands for enzyme-linked immunosorbent assay.)

Where [1] appears, read: PD-1/PD-L1 ELISA, human PD-L1 coated plates, Table 1.
Where [2] appears, read: human PD-1/PD-L1 ELISA, plates coated with human PD-L1.
[3] abbreviates: plate-coated human PD-L1, biotinylated Human PD-1, absorbance at 450 nm.

pIC50: −log10 of the molar value.

By pIC50 is commonly meant the IC50 on a negative log10 scale, so that one unit is a factor of ten. Lower therefore signals a high IC50.

Chain of human PD-L1 (Q9NZQ7 19-239): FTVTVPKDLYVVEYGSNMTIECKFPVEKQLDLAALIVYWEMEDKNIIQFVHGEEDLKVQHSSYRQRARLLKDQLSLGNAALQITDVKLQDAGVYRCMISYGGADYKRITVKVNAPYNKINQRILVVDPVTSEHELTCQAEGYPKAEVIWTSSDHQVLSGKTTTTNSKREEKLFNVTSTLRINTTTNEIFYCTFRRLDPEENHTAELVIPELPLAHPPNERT

`COc1cc(-c2cccc(-c3cccc(NC(=O)c4ccc(F)cn4)c3C)c2C)cc(F)c1CN1CC(C(=O)O)C1` [Example 1.359] had a pIC50 under setting [1] of 6.00 to 8.00. `COc1cc(-c2cccc(-c3cccc(NC(=O)c4cncn(C)c4=O)c3C)c2C)cc(F)c1CN(C)[C@@H]1CNC(=O)C1` [Example 1.084] had a pIC50 under setting [2] of 6.00 to 8.00. Consider `COc1cc(-c2cccc(-c3cccc(NC(=O)c4cccn(C)c4=O)c3C)c2C)cc(F)c1CN[C@@](C)(CO)C(=O)O` [Example 1.289], for which, under setting [1], the pIC50 is 6.00 to 8.00. `COc1cc(-c2cccc(-c3cccc(NC(=O)c4cn(C)c(=O)n(C)c4=O)c3C)c2C)cc(F)c1CNC1CCOCC1` [Example 1.052] had a pIC50 under setting [2] above 8.00. The same measure, in the same setting: the result for `COc1cc(-c2cccc(-c3cccc(NC(=O)c4cncn(C)c4=O)c3C)c2C)cc(F)c1CN1CCNC(=O)C1` [Example 1.182] reads 5.00 to 6.00. On to `COc1cc(-c2cccc(-c3cccc(NC(=O)c4cn(C)c(=O)n(C)c4=O)c3C)c2Cl)cc(F)c1CNCC1(O)CC1` [Example 2.056], for which the negative-log IC50 (pIC50) under setting [3] was above 8.00. Under setting [2], `COc1cc(-c2cccc(-c3cccc(Nc4nccc5nccnc45)c3C)c2C)cc(F)c1CN[C@@H]1CCNC1=O` [Example 1.130] gave a pIC50 of 6.00 to 8.00. The molecule `COc1cc(-c2cccc(-c3cccc(NC(=O)c4cn(C)c(=O)n(C)c4=O)c3C)c2C)cc(F)c1CN[C@H]1CCOC[C@H]1O` [Example 2.097] had a pIC50 under setting [3] above 8.00. On the same count and under the same terms, the result for `COc1cc(-c2cccc(-c3cccc(NC(=O)c4cn(C)c(=O)n(C)c4=O)c3C)c2Cl)cc(F)c1CN1CCC(C)(O)CC1` [Example 2.018] reads above 8.00. `COc1cc(-c2cccc(-c3cccc(NC(=O)c4cn(C)c(=O)n(C)c4=O)c3C)c2C)cc(F)c1CNC1COC1` [Example 1.177] gave a pIC50 under setting [2] above 8.00.

`COc1cc(-c2cccc(-c3cccc(NC(=O)c4cn(C)c(=O)n(C)c4=O)c3C)c2C)cc(F)c1CN(C)C[C@H]1CCC(=O)N1` [Example 1.152] gave a pIC50 under setting [2] of 6.00 to 8.00. As to `COc1cc(-c2cccc(-c3cccc(NC(=O)c4cn(C)c(=O)n(C)c4=O)c3C)c2C)cc(F)c1CNCC1CCNC(=O)C1` (stereo not shown) [Example 1.067], under setting [2], the pIC50 was above 8.00. `COc1cc(-c2cccc(-c3cccc(NC(=O)c4cncn(C)c4=O)c3C)c2C)cc(F)c1CN1CCC2(C1)NC(=O)NC2=O` (stereo not shown) [Example 1.269]: under setting [1], the negative logarithm of the IC50 (pIC50) was above 8.00.

With `COc1cc(-c2cccc(-c3cccc(NC(=O)c4cn(C)c(=O)n(C)c4=O)c3C)c2C)cc(F)c1CNCC(C)(C)C(N)=O` [Example 1.080], the pIC50 under setting [2] is above 8.00.

`COc1cc(-c2cccc(-c3cccc(NC(=O)c4cc(N)ncn4)c3C)c2C)cc(F)c1CN1CC(C(=O)O)C1` [Example 1.320]: under setting [1], the pIC50 is above 8.00.

On to `COc1cc(-c2cccc(-c3cccc(NC(=O)c4c[nH]c(=O)n(C)c4=O)c3C)c2C)cc(F)c1CN1CC(N)C1` [Example 1.227], for which the pIC50 under setting [1] was above 8.00. `COc1cc(-c2cccc(-c3cccc(NC(=O)c4c[nH]c(=O)n(C)c4=O)c3C)c2C)cc(F)c1CNCC(N)=O` [Example 1.252]: under setting [1], the pIC50 was 6.00 to 8.00.

Turning to `COc1cc(-c2cccc(-c3cccc(NC(=O)c4cccn(C)c4=O)c3C)c2C)cc(F)c1CN[C@@H]1CCC[C@@H]1O` [Example 1.165], the pIC50 under setting [2] is above 8.00. Same read-out and setting: the value for `COc1cc(-c2cccc(-c3cccc(NC(=O)c4cncn(C)c4=O)c3C)c2C)cc(F)c1CN[C@@H]1CC[C@H]1O` (racemic) [Example 1.163] was above 8.00.

For the origin of these results see patent US11266643B2, “Triaryl compounds for treatment of PD-L1 diseases” (CHEMOCENTRYX, INC., priority 2019, dated 2022).
